{"source": "patent US12581252B2", "about": "“Substituted pyrrolo[3,4-b]pyridines as PI3K-α inhibitors” (Relay Therapeutics, Inc., priority 2020, dated 2026)", "key": {"H1047R PIK3CA enzyme": {"biological_target": "H1047R PIK3CA enzyme (Homo sapiens, UniProt P42336, H1047R)", "sequence (P42336 whole entry H1047R)": "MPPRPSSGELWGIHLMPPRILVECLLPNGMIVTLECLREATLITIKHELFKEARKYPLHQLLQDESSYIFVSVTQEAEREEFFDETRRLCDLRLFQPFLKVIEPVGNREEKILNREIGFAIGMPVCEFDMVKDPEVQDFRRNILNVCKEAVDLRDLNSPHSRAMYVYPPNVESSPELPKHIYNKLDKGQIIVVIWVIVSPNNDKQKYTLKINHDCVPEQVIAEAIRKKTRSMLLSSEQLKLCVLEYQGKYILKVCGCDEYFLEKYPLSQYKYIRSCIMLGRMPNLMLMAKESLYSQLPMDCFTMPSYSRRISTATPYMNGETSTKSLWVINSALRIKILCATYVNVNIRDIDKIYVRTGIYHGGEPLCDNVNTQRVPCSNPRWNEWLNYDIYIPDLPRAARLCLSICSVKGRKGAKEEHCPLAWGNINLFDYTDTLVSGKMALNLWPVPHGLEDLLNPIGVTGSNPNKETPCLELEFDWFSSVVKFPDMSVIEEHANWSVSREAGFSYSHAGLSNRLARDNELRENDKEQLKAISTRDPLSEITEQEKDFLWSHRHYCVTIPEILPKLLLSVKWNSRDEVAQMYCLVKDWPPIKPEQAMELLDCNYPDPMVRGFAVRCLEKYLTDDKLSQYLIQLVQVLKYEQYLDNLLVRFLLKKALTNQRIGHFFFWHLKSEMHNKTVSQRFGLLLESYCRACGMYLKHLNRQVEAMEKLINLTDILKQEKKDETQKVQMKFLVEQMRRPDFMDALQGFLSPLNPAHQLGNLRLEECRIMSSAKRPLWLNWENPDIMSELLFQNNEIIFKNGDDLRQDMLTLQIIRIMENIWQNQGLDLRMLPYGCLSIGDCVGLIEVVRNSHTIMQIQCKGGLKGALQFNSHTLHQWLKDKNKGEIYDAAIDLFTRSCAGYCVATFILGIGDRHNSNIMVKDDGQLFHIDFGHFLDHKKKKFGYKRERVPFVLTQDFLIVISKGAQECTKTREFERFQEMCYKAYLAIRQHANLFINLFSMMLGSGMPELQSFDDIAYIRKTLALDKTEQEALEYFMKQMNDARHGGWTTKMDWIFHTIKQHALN", "sequence (P27986 whole entry partner)": "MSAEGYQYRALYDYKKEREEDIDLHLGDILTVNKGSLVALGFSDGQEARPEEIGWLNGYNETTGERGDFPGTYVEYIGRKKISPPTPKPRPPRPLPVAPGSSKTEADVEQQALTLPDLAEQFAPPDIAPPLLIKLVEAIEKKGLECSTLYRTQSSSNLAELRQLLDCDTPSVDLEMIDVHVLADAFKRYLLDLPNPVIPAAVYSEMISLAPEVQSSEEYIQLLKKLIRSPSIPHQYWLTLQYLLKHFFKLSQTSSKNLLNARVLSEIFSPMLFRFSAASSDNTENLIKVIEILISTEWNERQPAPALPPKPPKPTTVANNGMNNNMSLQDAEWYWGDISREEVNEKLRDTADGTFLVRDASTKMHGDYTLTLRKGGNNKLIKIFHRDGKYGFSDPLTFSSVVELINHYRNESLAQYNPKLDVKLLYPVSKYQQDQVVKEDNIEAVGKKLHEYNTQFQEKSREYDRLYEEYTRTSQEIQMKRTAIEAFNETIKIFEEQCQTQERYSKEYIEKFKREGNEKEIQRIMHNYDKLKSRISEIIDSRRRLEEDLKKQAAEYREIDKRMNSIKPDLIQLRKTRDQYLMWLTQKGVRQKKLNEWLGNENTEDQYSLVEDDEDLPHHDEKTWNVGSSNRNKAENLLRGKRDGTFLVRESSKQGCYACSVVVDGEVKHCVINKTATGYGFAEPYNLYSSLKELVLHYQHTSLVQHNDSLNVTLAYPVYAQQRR", "experiment": "ADP-Glo Biochemical PIK3CA Kinase Assay"}, "cells": {"experiment": "cells", "conditions": "Homo sapiens, MCF-10A, read-out: MCF10A IC50"}}, "data": [{"compound": "O=C(Nc1cc(-c2ccc3ncnn3c2)cc2c1[C@H](c1cc(F)cc(F)c1Cl)NC2=O)c1cc(F)cc(C(F)(F)F)c1", "note": "(stereo in doubt) [Compound I-1062]", "values": [{"measurement": "IC50", "setting": "H1047R PIK3CA enzyme", "value": "≤ 0.1", "unit": "µM"}, {"measurement": "IC50", "setting": "cells", "value": "< 1", "unit": "µM"}]}, {"compound": "Cc1nc2ccc(-c3cc(NC(=O)c4cc(F)cc(C(F)(F)F)c4)c4c(c3)C(=O)NC4c3cc(F)ccc3Cl)cc2o1", "note": "(stereo not shown) [Compound I-984]", "values": [{"measurement": "IC50", "setting": "H1047R PIK3CA enzyme", "value": "≤ 0.1", "unit": "µM"}, {"measurement": "IC50", "setting": "cells", "value": "< 1", "unit": "µM"}]}, {"compound": "O=C(Nc1cc(-c2cncnc2)cc2c1[C@H](c1cc(F)ccc1Cl)NC2=O)c1cc(F)cc(C(F)(F)F)c1", "note": "[Compound I-1095]", "values": [{"measurement": "IC50", "setting": "H1047R PIK3CA enzyme", "value": "≤ 0.1", "unit": "µM"}, {"measurement": "IC50", "setting": "cells", "value": "< 1", "unit": "µM"}]}, {"compound": "O=C(Nc1cc(I)cc2c1C(c1cc(F)ccc1Cl)NC2=O)c1cc(F)cc(C(F)(F)F)c1", "note": "(stereo not shown) [Compound I-913]", "values": [{"measurement": "IC50", "setting": "H1047R PIK3CA enzyme", "value": "≤ 0.1", "unit": "µM"}, {"measurement": "IC50", "setting": "cells", "value": "< 1", "unit": "µM"}]}, {"compound": "CNc1nc2ccc(-c3cc(NC(=O)c4cc(F)cc(C(F)(F)F)c4)c4c(c3)C(=O)NC4c3cc(F)ccc3Cl)cn2n1", "note": "(stereo not shown) [Compound I-2125]", "values": [{"measurement": "IC50", "setting": "H1047R PIK3CA enzyme", "value": "≤ 0.1", "unit": "µM"}, {"measurement": "IC50", "setting": "cells", "value": "< 1", "unit": "µM"}]}, {"compound": "O=C1N[C@@H](c2cc(F)ccc2Cl)c2c(NC(=O)N3C[C@@H](O)c4cc(F)ccc43)cccc21", "note": "(single isomer, unassigned) [Compound I-2127]", "values": [{"measurement": "IC50", "setting": "H1047R PIK3CA enzyme", "value": "≤ 0.1", "unit": "µM"}, {"measurement": "IC50", "setting": "cells", "value": "< 1", "unit": "µM"}]}, {"compound": "O=C1N[C@@H](c2cc(F)ccc2Cl)c2c(NC(=O)N3C[C@](O)(C(F)(F)F)c4cc(F)ccc43)cc(F)cc21", "note": "(single isomer, unassigned) [Compound I-2630]", "values": [{"measurement": "IC50", "setting": "H1047R PIK3CA enzyme", "value": "1 to 10", "unit": "µM"}, {"measurement": "IC50", "setting": "cells", "value": "< 1", "unit": "µM"}]}, {"compound": "O=C(Nc1cc(-c2ccc3[nH]ncc3c2)cc2c1C(c1cc(F)ccc1Cl)NC2=O)c1cc(F)cc(C(F)(F)F)c1", "note": "(stereo not shown) [Compound I-1033]", "values": [{"measurement": "IC50", "setting": "H1047R PIK3CA enzyme", "value": "≤ 0.1", "unit": "µM"}, {"measurement": "IC50", "setting": "cells", "value": "< 1", "unit": "µM"}]}, {"compound": "CC(C)(CN)n1cc(-c2cc(NC(=O)N3C[C@@](O)(C(F)(F)F)c4cc(F)ccc43)c3c(c2)C(=O)N[C@@H]3c2cc(F)ccc2Cl)cn1", "note": "(single isomer, unassigned) [Compound I-2649]", "values": [{"measurement": "IC50", "setting": "H1047R PIK3CA enzyme", "value": "≤ 0.1", "unit": "µM"}, {"measurement": "IC50", "setting": "cells", "value": "1 to 5", "unit": "µM"}]}, {"compound": "O=C1N[C@@H](c2cc(F)ccc2Cl)c2c(NC(=O)N3C[C@@H](O)c4cc(F)c(F)cc43)cccc21", "note": "(single isomer, unassigned) [Compound I-2293]", "values": [{"measurement": "IC50", "setting": "H1047R PIK3CA enzyme", "value": "≤ 0.1", "unit": "µM"}, {"measurement": "IC50", "setting": "cells", "value": "< 1", "unit": "µM"}]}, {"compound": "O=C1N[C@@H](c2cccc(F)c2F)c2c(NC(=O)c3csc4ccccc34)ccnc21", "note": "[Compound I-22]", "values": [{"measurement": "IC50", "setting": "H1047R PIK3CA enzyme", "value": "0.5 to 1", "unit": "µM"}, {"measurement": "IC50", "setting": "cells", "value": "1 to 5", "unit": "µM"}]}, {"compound": "Cc1nn(C)cc1Nc1cc(NC(=O)c2cc(F)cc(C(F)(F)F)c2)c2c(c1)C(=O)NC2c1cc(F)ccc1Cl", "note": "(stereo not shown) [Compound I-924]", "values": [{"measurement": "IC50", "setting": "H1047R PIK3CA enzyme", "value": "≤ 0.1", "unit": "µM"}, {"measurement": "IC50", "setting": "cells", "value": "< 1", "unit": "µM"}]}, {"compound": "Cc1ccccc1C1NC(=O)c2cccc(NC(=O)c3csc4cnccc34)c21", "note": "(stereo not shown) [Compound I-46]", "values": [{"measurement": "IC50", "setting": "H1047R PIK3CA enzyme", "value": "0.1 to 0.5", "unit": "µM"}, {"measurement": "IC50", "setting": "cells", "value": "10 to 36", "unit": "µM"}]}, {"compound": "C[S+]([O-])Cc1cc(NC(=O)c2cc(F)cc(C(F)(F)F)c2)c2c(c1)C(=O)NC2c1cc(F)ccc1Cl", "note": "(stereo not shown) [Compound I-962]", "values": [{"measurement": "IC50", "setting": "H1047R PIK3CA enzyme", "value": "≤ 0.1", "unit": "µM"}, {"measurement": "IC50", "setting": "cells", "value": "< 1", "unit": "µM"}]}, {"compound": "N#Cc1ncc(-c2cc(NC(=O)c3cc(F)cc(C(F)(F)F)c3)c3c(c2)C(=O)N[C@@H]3c2cc(F)ccc2Cl)cn1", "note": "[Compound I-980]", "values": [{"measurement": "IC50", "setting": "H1047R PIK3CA enzyme", "value": "≤ 0.1", "unit": "µM"}, {"measurement": "IC50", "setting": "cells", "value": "< 1", "unit": "µM"}]}, {"compound": "Cc1ccccc1C1NC(=O)c2cccc(NC(=O)c3csc4ccc(F)cc34)c21", "note": "(stereo not shown) [Compound I-26]", "values": [{"measurement": "IC50", "setting": "H1047R PIK3CA enzyme", "value": "0.1 to 0.5", "unit": "µM"}, {"measurement": "IC50", "setting": "cells", "value": "1 to 5", "unit": "µM"}]}, {"compound": "O=C1N[C@@H](c2cc(F)ccc2Cl)c2c(NC(=O)[C@H]3CCC[C@@H](C(F)(F)F)C3)cc(-c3ccc4ncnn4c3)cc21", "note": "[Compound I-2029]", "values": [{"measurement": "IC50", "setting": "H1047R PIK3CA enzyme", "value": "≤ 0.1", "unit": "µM"}, {"measurement": "IC50", "setting": "cells", "value": "< 1", "unit": "µM"}]}, {"compound": "O=C(Nc1cc(OCCO)cc2c1C(c1cc(F)ccc1Cl)NC2=O)c1cc(F)cc(C(F)(F)F)c1", "note": "(stereo not shown) [Compound I-1064]", "values": [{"measurement": "IC50", "setting": "H1047R PIK3CA enzyme", "value": "≤ 0.1", "unit": "µM"}, {"measurement": "IC50", "setting": "cells", "value": "< 1", "unit": "µM"}]}, {"compound": "O=C(Nc1cc(-c2cnn(C3COC3)c2)cc2c1C(c1cc(F)ccc1Cl)NC2=O)c1cc(F)cc(C(F)(F)F)c1", "note": "(stereo not shown) [Compound I-904]", "values": [{"measurement": "IC50", "setting": "H1047R PIK3CA enzyme", "value": "≤ 0.1", "unit": "µM"}, {"measurement": "IC50", "setting": "cells", "value": "< 1", "unit": "µM"}]}, {"compound": "CSCc1cc(NC(=O)c2cc(F)cc(C(F)(F)F)c2)c2c(c1)C(=O)NC2c1cc(F)ccc1Cl", "note": "(stereo not shown) [Compound I-914]", "values": [{"measurement": "IC50", "setting": "H1047R PIK3CA enzyme", "value": "≤ 0.1", "unit": "µM"}, {"measurement": "IC50", "setting": "cells", "value": "< 1", "unit": "µM"}]}]}
